According to patent publication US20040024024A1, “Aromatic sulfone hydroxamates and their use as protease inhibitors” (priority 2001, published 2004):

Assays:
Human recombinant MMP-2 = biological target: T1, Human recombinant MMP-2 (Homo sapiens, UniProt P08253); assay: In vitro MMP inhibition, Ki determination (fluorogenic substrate II); assay type: biochemical; details: value in parentheses
T1 construct: made in house; host or cells: MMP-2-transfected p2AHT2 cells
T1 sequence (P08253 110-660): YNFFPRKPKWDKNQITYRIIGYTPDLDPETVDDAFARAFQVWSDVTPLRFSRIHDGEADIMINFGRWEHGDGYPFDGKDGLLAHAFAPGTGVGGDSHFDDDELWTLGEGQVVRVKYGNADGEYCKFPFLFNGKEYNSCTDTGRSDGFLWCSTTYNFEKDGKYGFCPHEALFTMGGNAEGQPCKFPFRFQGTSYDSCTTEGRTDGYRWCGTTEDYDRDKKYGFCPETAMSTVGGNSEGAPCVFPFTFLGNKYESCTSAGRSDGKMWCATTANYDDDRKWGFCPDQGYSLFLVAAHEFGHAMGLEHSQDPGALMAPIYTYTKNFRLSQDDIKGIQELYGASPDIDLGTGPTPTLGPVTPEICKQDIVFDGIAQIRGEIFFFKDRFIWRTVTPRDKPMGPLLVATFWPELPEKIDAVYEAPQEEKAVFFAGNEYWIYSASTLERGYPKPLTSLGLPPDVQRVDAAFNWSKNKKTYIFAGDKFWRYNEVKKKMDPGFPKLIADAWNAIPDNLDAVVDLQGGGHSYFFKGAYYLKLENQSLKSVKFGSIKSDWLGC

Human recombinant MMP-9 = biological target: T2, Human recombinant MMP-9 (Homo sapiens, UniProt P14780); assay: as above; assay type: biochemical; details: value in parentheses
T2 construct: made in house; host or cells: MMP-9-transfected HT1080 cells (spent media)
Summary of the method: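 MMP-9 proenzyme purified from transfected HT1080 cell media, activated with APMA, trypsin or recombinant MMP-3; hydroxamates diluted in pH 7.5 Tris/NaCl/CaCl2 buffer. Cleavage of 4 μM MCA/Dpa substrate II followed by fluorescence (ex 330/em 420 nm), 1 h at room temperature. Ki from Morrison-equation fit, substrate at/below Km, uncorrected.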

T2 sequence (P14780 107-707 limits assumed): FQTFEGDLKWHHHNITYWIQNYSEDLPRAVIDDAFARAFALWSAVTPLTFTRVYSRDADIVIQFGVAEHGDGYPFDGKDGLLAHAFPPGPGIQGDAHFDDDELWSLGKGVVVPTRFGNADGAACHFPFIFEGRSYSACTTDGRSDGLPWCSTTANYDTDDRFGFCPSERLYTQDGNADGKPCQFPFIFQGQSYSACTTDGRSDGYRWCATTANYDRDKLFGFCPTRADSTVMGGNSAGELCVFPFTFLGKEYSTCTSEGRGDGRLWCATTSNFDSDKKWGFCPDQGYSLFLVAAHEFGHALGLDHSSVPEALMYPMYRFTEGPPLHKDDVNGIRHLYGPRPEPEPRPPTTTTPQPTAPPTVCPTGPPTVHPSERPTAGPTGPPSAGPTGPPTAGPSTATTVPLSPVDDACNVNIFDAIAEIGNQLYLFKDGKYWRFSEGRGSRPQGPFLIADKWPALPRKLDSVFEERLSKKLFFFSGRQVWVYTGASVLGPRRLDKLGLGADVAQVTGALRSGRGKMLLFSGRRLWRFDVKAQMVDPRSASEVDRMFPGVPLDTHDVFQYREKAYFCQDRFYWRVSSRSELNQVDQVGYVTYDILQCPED

SMILES	Ki (Human recombinant MMP-2)	Ki (Human recombinant MMP-9)
COCCN1CCC(C(=O)NO)(S(=O)(=O)c2ccc(OCCCc3cccc(-c4ccc(F)cc4F)c3)cc2)CC1 [Example 513]	0.88 µM	0.255 µM
COCCN1CCC(C(=O)NO)(S(=O)(=O)c2ccc(OCCCc3cccc(-c4ccc(C#N)cc4)c3)cc2)CC1 [Example 514]	0.293 µM	0.224 µM
CCN1CCC(C(=O)NO)(S(=O)(=O)c2ccc(OCCCc3cccc(-c4ccc(Cl)cc4)c3)cc2)CC1 [Example 526]	1.68 µM	2.07 µM
Cc1ccc(NC(=O)CCCOc2ccc(S(=O)(=O)C3(C(=O)NO)CCOCC3)cc2)cc1I [Example 527]	0.0213 µM	0.0304 µM
CCC(=O)c1cccc(CCCOc2ccc(S(=O)(=O)C3(C(=O)NO)CCOCC3)cc2)c1 [Example 528]	0.0835 µM	0.238 µM
O=C(NO)C1(S(=O)(=O)c2ccc(OCCCc3cccc(-c4ccc(O)cc4)c3)cc2)CCOCC1 [Example 529]	3.55 µM	1.87 µM
O=C(NO)C1(S(=O)(=O)c2ccc(OCCCc3cccc(-c4cccc(O)c4)c3)cc2)CCOCC1 [Example 530]	0.699 µM	0.22 µM
O=C(NO)C1(S(=O)(=O)c2ccc(OCCc3ccc(-c4ccc(O)cc4)cc3)cc2)CCOCC1 [Example 531]	0.337 µM	0.774 µM
O=C(NO)C1(S(=O)(=O)c2ccc(OCCc3ccc(-c4cccc(O)c4)cc3)cc2)CCOCC1 [Example 532]	0.739 µM	1.32 µM
CCCCc1ccc(CCCOc2ccc(S(=O)(=O)C3(C(=O)NO)CCOCC3)cc2)cn1 [Example 533]	0.0293 µM	0.141 µM
CCCc1ccc(CCCOc2ccc(S(=O)(=O)C3(C(=O)NO)CCOCC3)cc2)cn1 [Example 534]	0.0254 µM	0.324 µM
CCc1ccc(CCCOc2ccc(S(=O)(=O)C3(C(=O)NO)CCOCC3)cc2)cn1 [Example 535]	0.0232 µM	0.128 µM
CN1CCC(C(=O)NO)(S(=O)(=O)c2ccc(SCCNC(=O)c3cc4ccccc4o3)cc2)CC1 [Example 536]	0.744 µM	3.4 µM
COCCN1CCC(C(=O)NO)(S(=O)(=O)c2ccc(OCCc3cccc(-c4ccncc4)c3)cc2)CC1 [Example 538]	0.0246 µM	0.117 µM
COCCN1CCC(C(=O)NO)(S(=O)(=O)c2ccc(OCCc3cccc(-c4cccnc4)c3)cc2)CC1 [Example 539]	0.0386 µM	0.0855 µM
COCCN1CCC(C(=O)NO)(S(=O)(=O)c2ccc(OCCc3cccc(-c4ccccc4F)c3)cc2)CC1 [Example 540]	0.27 µM	0.689 µM
O=C(NCCSc1ccc(S(=O)(=O)C2(C(=O)NO)CCN(C3CC3)CC2)cc1)c1nc2ccccc2s1 [Example 541]	0.302 µM	0.269 µM
O=C(NCCSc1ccc(S(=O)(=O)C2(C(=O)NO)CCN(C3CC3)CC2)cc1)c1cc2ccccc2o1 [Example 542]	0.234 µM	0.922 µM
COCCN1CCC(C(=O)NO)(S(=O)(=O)c2ccc(OCCc3ccc(-c4ccc(C#N)cc4)cc3)cc2)CC1 [Example 543]	0.124 µM	0.207 µM
COCCN1CCC(C(=O)NO)(S(=O)(=O)c2ccc(OCCc3cccc(-c4ccc(F)cc4)c3)cc2)CC1 [Example 544]	0.302 µM	0.787 µM
COCCN1CCC(C(=O)NO)(S(=O)(=O)c2ccc(OCCc3cccc(-c4cccc(F)c4)c3)cc2)CC1 [Example 545]	0.31 µM	0.923 µM
COCCN1CCC(C(=O)NO)(S(=O)(=O)c2ccc(OCCc3cccc(-c4ccc(F)cc4F)c3)cc2)CC1 [Example 546]	0.426 µM	1.27 µM
COCCN1CCC(C(=O)NO)(S(=O)(=O)c2ccc(OCCc3cccc(-c4ccc(Cl)cc4)c3)cc2)CC1 [Example 547]	0.727 µM	1.86 µM
COCCN1CCC(C(=O)NO)(S(=O)(=O)c2ccc(OCCc3cccc(-c4ccccn4)c3)cc2)CC1 [Example 548]	0.00158 µM	0.279 µM
COCCN1CCC(C(=O)NO)(S(=O)(=O)c2ccc(OCCc3cccc(-c4ccc(F)c(F)c4)c3)cc2)CC1 [Example 549]	0.504 µM	1.77 µM

Continued, values first:

Ki (Human recombinant MMP-2)	Ki (Human recombinant MMP-9)	SMILES
0.00549 µM	0.00751 µM	CCCc1ccc(COc2ccc(S(=O)(=O)C3(C(=O)NO)CCOCC3)cc2)cn1 [Example 550]
0.00507 µM	0.0482 µM	CCCCc1ccc(COc2ccc(S(=O)(=O)C3(C(=O)NO)CCOCC3)cc2)cn1 [Example 551]
0.00494 µM	0.00222 µM	CCc1ccc(COc2ccc(S(=O)(=O)C3(C(=O)NO)CCOCC3)cc2)cn1 [Example 552]
0.0078 µM	0.0712 µM	COCCN1CCC(C(=O)NO)(S(=O)(=O)c2ccc(OCCNC(=O)c3cc4ccccc4o3)cc2)CC1 [Example 553]
0.0613 µM	0.442 µM	O=C(NO)C1(S(=O)(=O)c2ccc(OCCOc3cncnc3)cc2)CCOCC1 [Example 554]
0.00338 µM	0.05 µM	O=C(NO)C1(S(=O)(=O)c2ccc(OCCCOCc3ccncc3)cc2)CCOCC1 [Example 555]
0.0681 µM	0.212 µM	O=C(NO)C1(S(=O)(=O)c2ccc(OCCc3ccccn3)cc2)CCOCC1 [Example 556]
0.00646 µM	0.0336 µM	O=C(NO)C1(S(=O)(=O)c2ccc(OCCc3cccnc3)cc2)CCOCC1 [Example 557]
0.0117 µM	0.0576 µM	O=C(NO)C1(S(=O)(=O)c2ccc(OCCCOc3cncnc3)cc2)CCOCC1 [Example 559]
0.0103 µM	0.00717 µM	O=C(NO)C1(S(=O)(=O)c2ccc(OCCCOc3cccnc3)cc2)CCOCC1 [Example 560]
0.241 µM	0.786 µM	O=C(NCCOc1ccc(S(=O)(=O)C2(C(=O)NO)CCOCC2)cc1)c1c[nH]c2ccccc12 [Example 562]
0.599 µM	0.705 µM	O=C(NCCSc1ccc(S(=O)(=O)C2(C(=O)NO)CCOCC2)cc1)c1nc2ccccc2s1 [Example 598]
0.289 µM	0.0762 µM	C#Cc1ccc(-c2cccc(CCCOc3ccc(S(=O)(=O)C4(C(=O)NO)CCN(CCOC)CC4)cc3)c2)cc1 [Example 646]
